According to patent US20090241205A1, “METHOD FOR IDENTIFYING CRMP MODULATORS” (priority 2006, published 2009):
Entries after “also recorded” stand apart in the source; their conditions may differ.

Columns and labels:
[1] = target: T1, CRMP-2 (Rattus norvegicus, UniProt P47942); assay: biological pull-down (Affinity Fishhook) with biotinylated affinity reagents in rat brain; type: binding; conditions: biotinyl affinity reagent
T1 construct: from tissue; host or cells: rat brain (extract/fractions)
Method: Biological pull-down experiments (“Affinity Fishhook”) were performed by incubating a set of four Lacosamide-related affinity-reagents with biotinyl-moieties (R)—N-Benzyl-2-acetamido-6-[Nε-(biotinyl)-2-isothiocynato-6-aminohexanamido]-aminohexanamide((R)-7), (S)—N-Benzyl-2-acetamido-6-[Nε-(biotinyl)-2-isothiocynato-6-aminohexanamido]-aminohexanamide((S)-7), (R)—N-{3-[Nε-(biotinyl)-2-isothiocynato-6-aminohexanamide]-benzyl}-2-acetamido-3-methoxypropion-amide((R)-34) and (R)—N-{4-[Nε-(biotinyl)-2-isothiocynato-6-aminohexanamide]-benzyl}-2-acetamido-3-methoxypropion-amide((R)-35) to rat brain.
(a) The pattern of affinity captured proteins is completely different from raw extracts and controls and the protein is consistently captured under a variety of conditions.

[2] = system: neural derivates of murine embryonal stem cells; assay: NMDA excitotoxic insult, survival of neural derivates of murine embryonal stem cells (calcium imaging); type: cell-based; conditions: 200 μM NMDA; for survival rate after excitotoxic insult: 100 μM compound, NMDA alone 15.6% (16%)
[3] = target: T2, human CRMP-2 (Homo sapiens, UniProt Q16555); assay: competition protein binding with [14C]-labeled lacosamide, crude membranes from CRMP-2 transfected Xenopus oocytes
T2 construct: expressed in transfected cells; host or cells: Xenopus oocytes (crude membranes)
Method: It was therefore the object of the present invention to provide a method of identifying compounds suitable for the prevention, alleviation or/and treatment of diseases or conditions which can be treated by Lacosamide, based on the mode of action of Lacosamide. […] The binding was confirmed in experiments employing heterologously expressed human CRMP-2 in Xenopus oocytes.
Based on the results of the previous study, the present binding curve ranged from 1 to 100 μM (10 concentrations, in triplicates).

[4] = system: hippocampal primary cells; assay: axon growth in hippocampal primary cells (Tau-1 immunofluorescence); type: cell-based; conditions: for BDNF-induced axonal growth: 200 ng/ml BDNF
Method: It could be shown that the neurotrophins NT3 and BDNF stimulate axonal outgrowth in a primary culture of embryonal hippocampal neurons. Quantification of neurite outgrowth was performed by immunofluorescence microscopy employing an antibody against the axonal marker protein Tau-1.

COC[C@@H](NC(C)=O)C(=O)NCc1cccc(NC(=O)C(CCCCNC(=O)CCCCC2SCC3NC(=O)NC32)N=C=S)c1 (stereo partly drawn) [(R)-34, (R)—N-{3-[Nε-(biotinyl)-2-isothiocynato-6-aminohexanamide]-benzyl}-2-acetamido-3-methoxypropion-amide]
proteins captured in pull-down [1]: enrichment of an overlapping set of proteins, including collapsing response mediator protein (CRMP-2)

COC[C@H](NC(C)=O)C(=O)NCc1ccccc1 (single isomer, unassigned) [S-enantiomer of lacosamide]
survival rate after excitotoxic insult ([2]; listed as S-enantiomer): only a minor effect

COC[C@@H](NC(C)=O)C(=O)NCc1ccc(NC(=O)C(CCCCNC(=O)CCCCC2SCC3NC(=O)NC32)N=C=S)cc1 (stereo partly drawn) [(R)-35, (R)—N-{4-[Nε-(biotinyl)-2-isothiocynato-6-aminohexanamide]-benzyl}-2-acetamido-3-methoxypropion-amide]
proteins captured in pull-down [1]: enrichment of an overlapping set of proteins, including collapsing response mediator protein (CRMP-2)

CC(=O)N[C@@H](CCCCNC(=O)C(CCCCNC(=O)CCCC[C@@H]1SC[C@@H]2NC(=O)N[C@@H]21)N=C=S)C(=O)NCc1ccccc1 (stereo partly drawn) [(S)-7, (S)—N-Benzyl-2-acetamido-6-[Nε-(biotinyl)-2-isothiocynato-6-aminohexanamido]-aminohexanamide]
proteins captured in pull-down [1]: enrichment of an overlapping set of proteins, including collapsing response mediator protein (CRMP-2)

CC(=O)N[C@H](CCCCNC(=O)C(CCCCNC(=O)CCCC[C@@H]1SC[C@@H]2NC(=O)N[C@@H]21)N=C=S)C(=O)NCc1ccccc1 (stereo partly drawn) [(R)-7, (R)—N-Benzyl-2-acetamido-6-[Nε-(biotinyl)-2-isothiocynato-6-aminohexanamido]-aminohexanamide]
proteins captured in pull-down [1]: enrichment of an overlapping set of proteins, including collapsing response mediator protein (CRMP-2)

COC[C@@H](NC(C)=O)C(=O)NCc1ccccc1 [Lacosamide, (R)-2-acetamide-N-benzyl-3-methoxypropionamide]
survival rate after excitotoxic insult [2]: 71% | neuroprotective effect after pre-incubation with CRMP-2 siRNA ([2]; CRMP-2 siRNA pre-incubation): diminished | Kd [3]: < 5 µM | Bmax ([3]; [14C]-lacosamide, binding curve 1 to 100 μM): about 200 pM/mg | specific binding ([3]; crude membranes from CRMP-2 transfected Xenopus oocytes, 1 to 100 μM): competitive and specific binding was observed | NT3-induced axonal growth ([4]; 50 ng/ml NT3, 100 μM Lacosamide): significantly decreases | BDNF-induced axonal growth ([4]; 1 μM Lacosamide): significantly decreases | BDNF-induced axonal growth ([4]; 100 μM Lacosamide): significantly decreases | basal axonal outgrowth (axon length) ([4]; Lacosamide 1-200 μM, no neurotrophin): does not significantly change; also recorded: did not significantly change | NT3-induced neuronal outgrowth ([4]; concentration not stated in text (FIG. 2)): attenuated | BDNF-induced neuronal outgrowth ([4]; concentration not stated in text (FIG. 3)): attenuated
